# Assay results as given in patent publication US6908934B2, “Therapeutic compounds for treating dyslipidemic conditions” (Merck & Co., Inc., priority 2001, dated 2005).
# Test system: ABCA1 mRNA
# Test: cells
# Assay type: cell-based
# Conditions: Primary macrophage, human primary macrophages, 18 h + 6 h treatment, vs DMSO control, read-out: Fold Induction of ABCA1 mRNA (Mean ± SEM)
# Method: Induction of ABCA1 mRNA Levels
# Human Primary Macrophages were used to test the ability of LXR ligands to induce the expression of ABCA1 mRNA. The collection and purification of monocytes and their subsequent differentiation into macrophages by culturing in Teflon jars for 7-9 days was performed according to Wright and Silverstein J. Exp. Med. V156, October 1982 pp 1149-1164. Cells were harvested from the Teflon jars and seeded into appropriate vessels in RPMI1640 plus 12% human serum and antibiotics. Cells were allowed to recover overnight before treatment. Treatment was for 18 hours with the described compounds, followed by a re-application of fresh compounds for an additional 6 hours in DMEM minus Phenol Red with 10% charcoal stripped FCS. The cells were harvested and total RNA prepared using the phenol/guanidine isothiocyanate method as supplied and described by Molecular Research Center, Inc. (TRI REAGENT® Cat. No. TR 118). ABCA1 mRNA levels in the total RNA were measured using the TaqMan® mRNA quantitation system, following protocols published by the manufacturer (Perkin-Elmer). The oligonucleotide PCR primers used to detect ABCA1 were:
# The oligonucleotide probe used was:
# 6FAM-[…]-TAMRA ABCA1 mRNA levels in each sample were normalized to the mRNA levels for the 23 kDa highly basic protein. The oligonucleotide PCR primers used to detect the 23 kDa highly basic protein were: […]
structure (smiles),measurement,value
CC(C)CC[C@@H](O)[C@@H](C)[C@H]1CC[C@H]2[C@@H]3CC=C4C[C@@H](O)CC[C@]4(C)[C@H]3CC[C@]12C [22-(R)-hydroxycholesterol],fold induction at 10 µM,8 ± 1.37
